This is an account of results in PubChem BioAssay AID256 (DTP/NCI, 2004).

The test system of this assay is CD2F1 mice, L1210 leukemia ip, survival T/C. Description: NCI In Vivo Anticancer Drug Screen. Data for tumor model L1210 Leukemia (intraperitoneal) in CD2F1 (CDF1) mice. The following applies: higher = longer survival. In short, it runs like this:
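Tumor-bearing mice (transplanted tumor) were split into treated and vehicle control groups, and the measured endpoint of each treated group was divided by that of its vehicle controls.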

[1] abbreviates: endpoint: mean survival time, dose: 25.0 mg/kg/injection, schedule: Q01DX009 (ip), vehicle: Klucel (hydroxypropylcellulose) (HPC).
Setting [2] is: endpoint: mean survival time, dose: 50.0 mg/kg/injection, schedule: Q01DX009 (ip), vehicle: Klucel (hydroxypropylcellulose) (HPC).
The mark [3] stands for this setting: endpoint: mean survival time, dose: 100.0 mg/kg/injection, schedule: Q01DX001 (ip), vehicle: saline.
The mark [4] stands for this setting: endpoint: mean survival time, dose: 100.0 mg/kg/injection, schedule: Q04DX003 (ip), vehicle: saline with Tween-80.
Where [5] appears, read: endpoint: mean survival time, dose: 100.0 mg/kg/injection, schedule: Q01DX009 (ip), vehicle: saline with Tween-80.
Setting [6] is: endpoint: mean survival time, dose: 200.0 mg/kg/injection, schedule: Q04DX003 (ip), vehicle: saline with Tween-80.
[7] abbreviates: endpoint: mean survival time, dose: 100.0 mg/kg/injection, schedule: Q01DX009 (ip), vehicle: other.
Where [8] appears, read: endpoint: mean survival time, dose: 200.0 mg/kg/injection, schedule: Q01DX009 (ip), vehicle: other.

“And” between values parts separate entries of the source, which are not always exact repeats. Equal values may be shown once. Inconclusive results and toxic doses are left out.

For `COc1cc(C(Cl)C2OC(CO)C(O)C2O)nc(C)n1` (stereo unspecified), the T/C reads like this: (endpoint: median survival time, dose: 18.38 mg/kg/injection, schedule: Q01DX005 (ip), vehicle: saline) 110 % of control; (endpoint: median survival time, dose: 26.0 mg/kg/injection, schedule: Q01DX005 (ip), vehicle: saline) 103 % of control; (endpoint: median survival time, dose: 36.75 mg/kg/injection, schedule: Q01DX005 (ip), vehicle: saline) 97 % of control; (endpoint: median survival time, dose: 52.0 mg/kg/injection, schedule: Q01DX005 (ip), vehicle: saline) 102 % of control; (endpoint: median survival time, dose: 73.5 mg/kg/injection, schedule: Q01DX005 (ip), vehicle: saline) 100 % of control; (endpoint: median survival time, dose: 104.0 mg/kg/injection, schedule: Q01DX005 (ip), vehicle: saline) 107 % of control. The T/C was 103 % of control (endpoint: median survival time, dose: 147.0 mg/kg/injection, schedule: Q01DX005 (ip), vehicle: saline) and 101 % of control (endpoint: median survival time, dose: 208.0 mg/kg/injection, schedule: Q01DX005 (ip), vehicle: saline).
In the case of `CC(=O)OCC1OC(c2cccc3c2c2ccccc2n3S(=O)(=O)c2ccccc2)C(O)C1O` (stereo unspecified), the T/C is 110 % of control (endpoint: median survival time, dose: 12.5 mg/kg/injection, schedule: Q01DX005 (ip), vehicle: saline with Tween-80); 107 % of control (endpoint: median survival time, dose: 25.0 mg/kg/injection, schedule: Q01DX005 (ip), vehicle: saline with Tween-80); 96 % of control (endpoint: median survival time, dose: 50.0 mg/kg/injection, schedule: Q01DX005 (ip), vehicle: saline with Tween-80); 98 % of control (endpoint: median survival time, dose: 100.0 mg/kg/injection, schedule: Q01DX005 (ip), vehicle: saline with Tween-80); 98 % of control (endpoint: median survival time, dose: 200.0 mg/kg/injection, schedule: Q01DX005 (ip), vehicle: saline with Tween-80).
`CCCCCCCCCCCC(C)(O)C#N` (stereo unspecified): the T/C is 96 % of control (endpoint: mean survival time, dose: 100.0 mg/kg/injection, schedule: Q04DX002 (ip), vehicle: saline); 92 % of control (endpoint: mean survival time, dose: 200.0 mg/kg/injection, schedule: Q04DX002 (ip), vehicle: saline); 100 % of control (endpoint: mean survival time, dose: 400.0 mg/kg/injection, schedule: Q04DX002 (ip), vehicle: saline).
As for `O=C(O)c1cc2c([nH]1)=C(O)NN(O)C=2`, the T/C was 101 % of control (endpoint: mean survival time, dose: 12.5 mg/kg/injection, schedule: Q04DX002 (ip), vehicle: saline with Tween-80); 101 % of control (endpoint: mean survival time, dose: 25.0 mg/kg/injection, schedule: Q04DX002 (ip), vehicle: saline with Tween-80); 111 % of control (endpoint: mean survival time, dose: 50.0 mg/kg/injection, schedule: Q04DX002 (ip), vehicle: saline with Tween-80).
As to `CC1OC(C)(C)OC1C(=O)OCc1ccccc1` (stereo unspecified), the T/C is, setting by setting: under setting [1], 96 % of control; under setting [2], 93 % of control; (endpoint: mean survival time, dose: 100.0 mg/kg/injection, schedule: Q01DX009 (ip), vehicle: Klucel (hydroxypropylcellulose) (HPC)) 99 % of control; (endpoint: mean survival time, dose: 200.0 mg/kg/injection, schedule: Q01DX009 (ip), vehicle: Klucel (hydroxypropylcellulose) (HPC)) 94 % of control; (endpoint: mean survival time, dose: 400.0 mg/kg/injection, schedule: Q01DX009 (ip), vehicle: Klucel (hydroxypropylcellulose) (HPC)) 99 % of control.
As to `CN(C)C=C1C(=O)NC(=O)NC1=O`, the T/C is 91 % of control under setting [3] and 87 % of control (endpoint: mean survival time, dose: 200.0 mg/kg/injection, schedule: Q01DX001 (ip), vehicle: saline).
As to `NC(=O)c1csc(C2OC(COP(=O)(O)O)C(O)C2O)n1` (stereo unspecified), the T/C reads like this: (endpoint: mean survival time, dose: 200.0 mg/kg/injection, schedule: Q01DX005 (ip), vehicle: water) 259 % of control; (endpoint: mean survival time, dose: 400.0 mg/kg/injection, schedule: Q01DX005 (ip), vehicle: water) 155 % of control and 183 % of control; (endpoint: mean survival time, dose: 600.0 mg/kg/injection, schedule: Q01DX005 (ip), vehicle: water) 160 % of control; (endpoint: mean survival time, dose: 800.0 mg/kg/injection, schedule: Q01DX005 (ip), vehicle: water) 196 % of control.
Consider `CCCCCCCCCCCCOC(=O)C[n+]1cccc(C(=O)Nc2ccccc2)c1`, for which the T/C is, setting by setting: (endpoint: mean survival time, dose: 25.0 mg/kg/injection, schedule: Q01DX009 (ip), vehicle: saline with Tween-80) 95 % of control; under setting [4], 102 % of control.
In the case of `CN(C)CCSCC(=O)N1c2ccccc2Sc2ccc(Cl)cc21`, the T/C reads like this: (endpoint: mean survival time, dose: 50.0 mg/kg/injection, schedule: Q01DX009 (ip), vehicle: saline with Tween-80) 103 % of control; under setting [5], 101 % of control; under setting [4], 98 % of control; under setting [6], 98 % of control.
In the case of `Nc1nc(NNC(=O)c2ccccc2)c2nonc2n1`, the T/C is 95 % of control (endpoint: mean survival time, dose: 12.5 mg/kg/injection, schedule: Q01DX005 (ip), vehicle: other); 95 % of control (endpoint: mean survival time, dose: 25.0 mg/kg/injection, schedule: Q01DX005 (ip), vehicle: other); 91 % of control (endpoint: mean survival time, dose: 50.0 mg/kg/injection, schedule: Q01DX005 (ip), vehicle: other); 91 % of control (endpoint: mean survival time, dose: 200.0 mg/kg/injection, schedule: Q01DX005 (ip), vehicle: other).
As to `O=C(NCCC1CC=CCC1)c1ccccc1` (stereo unspecified), the T/C reads like this: under setting [5], 97 % of control; (endpoint: mean survival time, dose: 200.0 mg/kg/injection, schedule: Q01DX009 (ip), vehicle: saline with Tween-80) 95 % of control; (endpoint: mean survival time, dose: 400.0 mg/kg/injection, schedule: Q01DX009 (ip), vehicle: saline with Tween-80) 103 % of control.
On to `CCOC(=O)C(C)(C)CN1COCC1(C)C`, for which the T/C runs as follows: (endpoint: mean survival time, dose: 100.0 mg/kg/injection, schedule: Q01DX001 (ip), vehicle: saline with Tween-80) 112 % of control; (endpoint: mean survival time, dose: 200.0 mg/kg/injection, schedule: Q01DX001 (ip), vehicle: saline with Tween-80) 109 % of control.
In the case of `CCCCCCCCOC(=O)C12Oc3ccc(-c4ccc5c(c4O)C(O)=C4C(=O)CC(C)C(O)C4(C(=O)OCCCCCCCC)O5)c(O)c3C(O)=C1C(=O)CC(C)C2O` (stereo unspecified), the T/C was 97 % of control (endpoint: mean survival time, dose: 2.5 mg/kg/injection, schedule: Q01DX009 (ip), vehicle: saline with Tween-80); 97 % of control (endpoint: mean survival time, dose: 5.0 mg/kg/injection, schedule: Q01DX009 (ip), vehicle: saline with Tween-80); 97 % of control (endpoint: mean survival time, dose: 10.0 mg/kg/injection, schedule: Q01DX009 (ip), vehicle: saline with Tween-80).
For `CCC1=[N+]([O-])[N+]([O-])=C(c2ccccc2)C1=O`, the T/C runs as follows: (endpoint: mean survival time, dose: 50.0 mg/kg/injection, schedule: Q01DX009 (ip), vehicle: other) 93 % of control; under setting [7], 101 % of control; under setting [8], 93 % of control.
Regarding `Cc1ccc(C(=O)[O][Hg][CH2]C2COC([CH2][Hg][O]C(=O)c3ccc(C)cc3)CO2)cc1` (stereo unspecified), the T/C (endpoint: mean survival time, dose: 3.12 mg/kg/injection, schedule: Q01DX009 (ip), vehicle: Klucel (hydroxypropylcellulose) (HPC)) is 100 % of control and 106 % of control; the T/C (endpoint: mean survival time, dose: 6.25 mg/kg/injection, schedule: Q01DX009 (ip), vehicle: Klucel (hydroxypropylcellulose) (HPC)) was 101 % of control and 105 % of control; the T/C (endpoint: mean survival time, dose: 12.5 mg/kg/injection, schedule: Q01DX009 (ip), vehicle: Klucel (hydroxypropylcellulose) (HPC)) is 98 % of control and 108 % of control; the T/C under setting [1] was 98 % of control and 108 % of control; the T/C under setting [2] was 104 % of control.
In the case of `OC(CC1=NCCS1)(c1ccccc1)c1ccccc1`, the T/C is 93 % of control under setting [4]; 87 % of control under setting [6]; 98 % of control (endpoint: mean survival time, dose: 400.0 mg/kg/injection, schedule: Q04DX003 (ip), vehicle: saline with Tween-80).
For `CCCCCCC(O)CCCCCC`, the T/C was 96 % of control under setting [7]; 100 % of control (endpoint: mean survival time, dose: 100.0 mg/kg/injection, schedule: Q04DX003 (ip), vehicle: other); 98 % of control under setting [8]; 97 % of control (endpoint: mean survival time, dose: 200.0 mg/kg/injection, schedule: Q04DX003 (ip), vehicle: other); 98 % of control (endpoint: mean survival time, dose: 400.0 mg/kg/injection, schedule: Q01DX009 (ip), vehicle: other); 95 % of control (endpoint: mean survival time, dose: 400.0 mg/kg/injection, schedule: Q04DX003 (ip), vehicle: other).
For the compound `Nc1ncnc2c1nc(Cl)n2C1OC2COP(=O)(O)OC2C1O` (stereo unspecified), the T/C is 96 % of control (endpoint: mean survival time, dose: 12.5 mg/kg/injection, schedule: Q01DX005 (ip), vehicle: water); 100 % of control (endpoint: mean survival time, dose: 25.0 mg/kg/injection, schedule: Q01DX005 (ip), vehicle: water); 100 % of control (endpoint: mean survival time, dose: 50.0 mg/kg/injection, schedule: Q01DX005 (ip), vehicle: water).
With `CC1(C)C(N2CCCCC2)CS1(=O)=O` (stereo unspecified), the T/C is, setting by setting: (endpoint: mean survival time, dose: 25.0 mg/kg/injection, schedule: Q04DX003 (ip), vehicle: saline) 98 % of control; (endpoint: mean survival time, dose: 50.0 mg/kg/injection, schedule: Q04DX003 (ip), vehicle: saline) 95 % of control; under setting [3], 101 % of control.
